According to the supplement of paper PMC11208160:

assay: recombinant UMI read abundance after kanamycin selection (control-corrected) (log10(CPM+1)); higher = more efficient recombination; extreme values may be limits of the assay; sequences stand for … in AGTGCAGAGAAAATCGGCCAGTTTTCTCTGCCTGCAGTCCGCATGCCGTGGGACCCCTTGGGTTCTAACCTGTTGCCTAGATTTATGCAGCGGACTGCCTTTCTCCCAAAGTGATAAACCGG…AGGTTGGTTTCACT; site = the 11-nt donor
Outline: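 In a pooled Escherichia coli screen for the IS621 bridge recombinase, donor and donor-binding-loop pairs were each placed with a 12-nt UMI on a plasmid bearing a promoterless kanamycin gene. This library was co-electroporated with a target plasmid encoding a fixed target and T7-inducible recombinase, and cells were plated either on IPTG (0.07 mM) plus kanamycin or without selection, in two replicates each. Recombinant UMIs were PCR-amplified across the donor–target junction and sequenced, and counts were converted to CPM, averaged over replicates, scaled by control-derived factors and reported as log10(CPM+1).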
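Note: IS621 bridge recombinase in Escherichia coli cells against a fixed T5 target plasmid.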

Sequence	recombinant UMI read abundance (log10)
TCCACTTCATGGACCGGTTTTCCCGGTAATCCGTATTTGCC (site TCCAATTCTGG)	0
AGGGTTCCATGGACCGGTTTTCCCGGTAATCCGTATTTGGT (site AGGGTTCCTAC)	0.793
AACCACGCATGGACCGGTTTTCCCGGTAATCCGTATTTGGG (site AACCACGCTCC)	0.0319
CTAGTAACATGGACCGGTTTTCCCGGTAATCCGTATTTGGA (site CTACTAACTTC)	0.119
TTCCCGCCATGGACCGGTTTTCCCGGTAATCCGTATTTGCT (site TTCCCGCCTAG)	0.552
CCCATTTCATGGACCGGTTTTCCCGGTAATCCGTATTTGTC (site CCCATATCTGA)	0
CAATGCTCATGGACCGGTTTTCCCGGTAATCCGTATTTGAA (site CAATGCTCTTC)	0.687
GCGAAGACATGGACCGGTTTTCCCGGTAATCCGTATTTGGG (site GCGAAGACTCC)	0.479
CTTAGAACATGGACCGGTTTTCCCGGTAATCCGTATTTGGC (site TTTAGAACTGC)	0
TCGCTCTCATGGACCGGTTTTCCCGGTAATCCGTATTTGGC (site TCGCTCTCTGC)	0
GTTAGAACATGGACCGGTTTTCCCGGTAATCCGTATTTGGC (site GTTAAAACTGC)	0
CCCATGTCATGGACCGGTTTTCCCGGTAATCCGTATTTGTC (site CCCATCTCTGA)	0
ATAGGTACATGGACCGGTTTTCCCGGTAATCCGTATTTGAC (site TTAGGTACTGT)	2.15
GTAGTTGCATGGACCGGTTTTCCCGGTAATCCGTATTTGCG (site GTAGTCGCTCG)	1.78
CGACGTACATGGACCGGTTTTCCCGGTAATCCGTATTTGCT (site CGACGTACTAG)	2.45
CAGCACGCATGGACCGGTTTTCCCGGTAATCCGTATTTGCA (site CAGCACGCTTG)	2.58
CAATTCCCATGGACCGGTTTTCCCGGTAATCCGTATTTGCG (site CAATTCCCTCG)	2.33
ACTCGTGCATGGACCGGTTTTCCCGGTAATCCGTATTTGGT (site ACTAGTGCTAC)	0.43
AAGGGACCATGGACCGGTTTTCCCGGTAATCCGTATTTGGT (site AAGGGACCTAC)	0.00499
CCGCACACATGGACCGGTTTTCCCGGTAATCCGTATTTGGT (site CCGCACACTAC)	0.509
TAAAGTCCATGGACCGGTTTTCCCGGTAATCCGTATTTGTA (site AAAAGTCCTTA)	2.17
GAGGAAACATGGACCGGTTTTCCCGGTAATCCGTATTTGCT (site GAGGAAACTAG)	0
ATATCTACATGGACCGGTTTTCCCGGTAATCCGTATTTGTG (site AGATCTACTCA)	0.401
CGCTGTGCATGGACCGGTTTTCCCGGTAATCCGTATTTGCA (site CGCTGTGCTTG)	1.87
ACCACTCCATGGACCGGTTTTCCCGGTAATCCGTATTTGTA (site ACCACTCCTTA)	0.852

Sequence	recombinant UMI read abundance (log10)
GTAGGTGCATGGACCGGTTTTCCCGGTAATCCGTATTTGAC (site GTAGGTTCTGT)	1.1
GTATGCTCATGGACCGGTTTTCCCGGTAATCCGTATTTGTA (site GTATGCTCTTA)	2.99
GCTTGCGCATGGACCGGTTTTCCCGGTAATCCGTATTTGGT (site GCTTGCGCTAC)	0.514
GATGGGACATGGACCGGTTTTCCCGGTAATCCGTATTTGAC (site GATTGGACTGT)	0
GAGTGGACATGGACCGGTTTTCCCGGTAATCCGTATTTGAC (site GAGTGGACTGT)	2.6
GTTCGTACATGGACCGGTTTTCCCGGTAATCCGTATTTGTT (site GTTCGTACTAA)	0.0105
CCCATTTCATGGACCGGTTTTCCCGGTAATCCGTATTTGTC (site CCCATCTCTGA)	0
AAGCACCCATGGACCGGTTTTCCCGGTAATCCGTATTTGGG (site AAGCACTCTCC)	0.371
CCTAAAGCATGGACCGGTTTTCCCGGTAATCCGTATTTGAG (site CCTAAAGCTGT)	0
CGGAATCCATGGACCGGTTTTCCCGGTAATCCGTATTTGTT (site AGGAATCCTTA)	0
GTGAATGCATGGACCGGTTTTCCCGGTAATCCGTATTTGGT (site GTGTATGCTAC)	1.4
TGTACCTCATGGACCGGTTTTCCCGGTAATCCGTATTTGGG (site TGTACCTCTCC)	0.0503
ACGTCTACATGGACCGGTTTTCCCGGTAATCCGTATTTGTG (site ACATCTACTCA)	0.796
TATTGAGCATGGACCGGTTTTCCCGGTAATCCGTATTTGGG (site TAGTGAGCTCC)	0.0187
CCGGAGTCATGGACCGGTTTTCCCGGTAATCCGTATTTGCC (site CCGGAGTCTGG)	1.55
TTTGCGTCATGGACCGGTTTTCCCGGTAATCCGTATTTGCT (site TTTGCGCCTAG)	0.0115
GTGCACGCATGGACCGGTTTTCCCGGTAATCCGTATTTGGT (site GTGCACGCTAC)	1.75
GGTCACCCATGGACCGGTTTTCCCGGTAATCCGTATTTGTT (site GGACACCCTAA)	0
GGTTGGTCATGGACCGGTTTTCCCGGTAATCCGTATTTGCA (site GGTTGGTCTTG)	1.59
AGATGGCCATGGACCGGTTTTCCCGGTAATCCGTATTTGTG (site AGATGGCCTCA)	0.0259
GCATACTCATGGACCGGTTTTCCCGGTAATCCGTATTTGCA (site CCATACTCTTG)	2.9
AATTATGCATGGACCGGTTTTCCCGGTAATCCGTATTTGGA (site AATTACGCTTC)	0.439
CTTCTCTCATGGACCGGTTTTCCCGGTAATCCGTATTTGTA (site TTTCTCTCTTA)	0.396
CCACGAACATGGACCGGTTTTCCCGGTAATCCGTATTTGTC (site GCACGAACTGA)	0
CGGGAGCCATGGACCGGTTTTCCCGGTAATCCGTATTTGCC (site CGGGAGTCTGG)	1

Sequence	recombinant UMI read abundance (log10)
CCATCGACATGGACCGGTTTTCCCGGTAATCCGTATTTGTT (site CTATCGACTAA)	0.0452
ATTATTACATGGACCGGTTTTCCCGGTAATCCGTATTTGCA (site ATTATTACTTG)	1.8
TAACCACCATGGACCGGTTTTCCCGGTAATCCGTATTTGAT (site TAACCACCTAT)	0.0138
ACTATTGCATGGACCGGTTTTCCCGGTAATCCGTATTTGGT (site ACTATTGCTAC)	1.91
TATTTGACATGGACCGGTTTTCCCGGTAATCCGTATTTGTG (site TATTTGCCTCA)	0.00551
CGATCATCATGGACCGGTTTTCCCGGTAATCCGTATTTGCT (site CGACCATCTCG)	0.019
CGCATTTCATGGACCGGTTTTCCCGGTAATCCGTATTTGAG (site CGCATTTCTCT)	0.426
CGCCGTGCATGGACCGGTTTTCCCGGTAATCCGTATTTGCT (site CGCCGTCCTAG)	0.00563
GCGTAAACATGGACCGGTTTTCCCGGTAATCCGTATTTGCT (site GCGCAAACTAG)	1.82
ATAGACCCATGGACCGGTTTTCCCGGTAATCCGTATTTGAT (site ATAGACCCTAT)	1.21
ACATCTACATGGACCGGTTTTCCCGGTAATCCGTATTTGTG (site ACATATACTCA)	0.324
ACATCCACATGGACCGGTTTTCCCGGTAATCCGTATTTGTG (site ACATCAACTCA)	0.0218
GCTACTGCATGGACCGGTTTTCCCGGTAATCCGTATTTGCC (site GCTACTGCTGG)	1.11
TTTGCGCCATGGACCGGTTTTCCCGGTAATCCGTATTTGCT (site TTTGCGCCTAG)	0.00475
CGTAAGCCATGGACCGGTTTTCCCGGTAATCCGTATTTGTT (site CGGAATCCTAA)	0
GTATAGACATGGACCGGTTTTCCCGGTAATCCGTATTTGCC (site GGATAGACTGG)	0.251
CCCCACACATGGACCGGTTTTCCCGGTAATCCGTATTTGTA (site CCCCAAACTTA)	0
CCCATGTCATGGACCGGTTTTCCCGGTAATCCGTATTTGTC (site CCCATATCTGA)	0
CGGAATCCATGGACCGGTTTTCCCGGTAATCCGTATTTGTT (site TGGACTCCTAA)	0.027
AACAGTCCATGGACCGGTTTTCCCGGTAATCCGTATTTGAT (site AACTGTCCTAT)	0
CGTACATCATGGACCGGTTTTCCCGGTAATCCGTATTTGCT (site CGCACATCTAG)	0
GCTGGAGCATGGACCGGTTTTCCCGGTAATCCGTATTTGAG (site GCTGGAGCTCT)	1.41
TGGGTAGCATGGACCGGTTTTCCCGGTAATCCGTATTTGGG (site TGGGTAGCTCC)	0
TCGCAGCCATGGACCGGTTTTCCCGGTAATCCGTATTTGCT (site TCGCAGCCTAG)	0
GAATGGCCATGGACCGGTTTTCCCGGTAATCCGTATTTGCA (site GAACGGCCTTG)	0
